The record followed here is ChEMBL document CHEMBL1150878, “Novel cytotoxic diterpenes, excavatolides A-E, isolated from the Formosan gorgonian Briareum excavatum” (1998).

Values after ≈ are worked out from the molar mass of the structure shown. A value given as a limit tells only on which side of the number the result lay.

Common to all, as to type: functional
What all share (details): read-out: ED50 (the source's name)

One assay relates to P388. The assay can be described thus: Cytotoxicity against mouse P388 cells by MTT assay. (Tetrazolium dyes change colour on reduction, which living cells bring about.)
The subject of a further assay is KB. The assay can be described thus: Cytotoxicity against human KB cells by MTT assay.
For a further assay, the system named is A549. Kind of assay: Cytotoxicity against human A549 cells by MTT assay.
A further assay deals with HT-29. The assay can be described thus: Cytotoxicity against human HT-29 cells by MTT assay.

Turning to `CC(=O)O[C@H]1C[C@H](OC(C)=O)[C@@]2(C)[C@H]([C@H]1C)[C@]1(O)[C@@]2(OC(C)=O)CC/C(C)=C\[C@@H]2OC(=O)[C@@]3(C)O[C@@]213`, the EC50 in the assay on P388 was 5.8 µg/mL (≈ 11.5 µM); with KB, above 50 µg/mL; with A549, 37.2 µg/mL (≈ 73.4 µM); in the assay on HT-29 it was 4.4 µg/mL (≈ 8.69 µM).

In the case of `C=C1[C@H]2O[C@H]2[C@@]2(O)[C@@]3(C)[C@H]4O[C@H]4[C@H](OC(C)=O)[C@H](C)[C@@H]3[C@@]2(OC(C)=O)[C@]2(O)[C@@H](C)C(=O)O[C@H]2[C@H]1Cl` [BRIANOLIDE], the EC50 with P388, in the assay on KB, in the assay on A549 and in the assay on HT-29 was above 50 µg/mL each time.

Take `C=C1[C@@H]2C[C@@]3(OC(C)=O)[C@@]4(C)[C@@H](OC(C)=O)CC=C(C)[C@@H]4[C@@]3(O)[C@]3(O2)[C@@H](C)C(=O)O[C@H]3[C@H]1Cl` [EXCAVATOLIDE A]: the EC50 was above 50 µg/mL in the assay with P388, 2.5 µg/mL (≈ 5.2 µM) in the assay with KB, 21.9 µg/mL (≈ 45.5 µM) in the assay with A549 and above 50 µg/mL with HT-29.

As to `CCCC(=O)O[C@H]1C/C(C)=C\[C@@H]2OC(=O)[C@@]3(C)O[C@]23[C@]2(OC(C)=O)[C@H]3[C@@H](C)[C@@H](O)C[C@H](OC(C)=O)[C@]3(C)[C@]12OC(C)=O` [EXCAVATOLIDE B], the EC50 in the assay on P388, in the assay with KB, in the assay with A549 and with HT-29 was above 50 µg/mL each time.

`CC(=O)O[C@H]1C[C@H](O)[C@H](C)[C@H]2[C@@]1(C)[C@]1(OC(C)=O)[C@@H](OC(C)=O)C/C(C)=C\[C@@H]3OC(=O)[C@@]4(C)O[C@]34[C@]21OC(C)=O` [EXCAVATOLIDE C]: the EC50 with P388 came out at 0.3 µg/mL (≈ 0.531 µM); with KB, 1.9 µg/mL (≈ 3.37 µM); with A549, 1.9 µg/mL (≈ 3.37 µM); in the assay with HT-29 it was 1.9 µg/mL (≈ 3.37 µM).

Consider `CC(=O)O[C@H]1C[C@H](O)[C@H](C)[C@H]2[C@@]1(C)[C@]1(O)[C@@H](OC(C)=O)C/C(C)=C\[C@@H]3OC(=O)[C@@]4(C)O[C@]34[C@]21OC(C)=O` [EXCAVATOLIDE D], for which the EC50 with P388 was 1.8 µg/mL (≈ 3.44 µM); in the assay with KB, 4.2 µg/mL (≈ 8.04 µM); with A549 it was above 50 µg/mL; with HT-29 it was 1.3 µg/mL (≈ 2.49 µM).

As to `CC(=O)O[C@H]1C[C@H](O)[C@H](C)[C@H]2[C@@]1(C)[C@]1(OC(C)=O)CC/C(C)=C\[C@@H]3OC(=O)[C@@]4(C)O[C@]34[C@]21O` [EXCAVATOLIDE E], the EC50 in the assay with P388 came to 1.6 µg/mL (≈ 3.44 µM); in the assay on KB it was 0.8 µg/mL (≈ 1.72 µM); with A549, 1.2 µg/mL (≈ 2.58 µM); in the assay with HT-29, 1.6 µg/mL (≈ 3.44 µM).
